{"source": "BindingDB's records for doi:10.1021/jm701487t", "about": "(F. Hoffmann-La Roche, 2008)", "target": "Cannabinoid receptor 2 (Homo sapiens, UniProt P34972)", "sequence (P34972 whole entry)": "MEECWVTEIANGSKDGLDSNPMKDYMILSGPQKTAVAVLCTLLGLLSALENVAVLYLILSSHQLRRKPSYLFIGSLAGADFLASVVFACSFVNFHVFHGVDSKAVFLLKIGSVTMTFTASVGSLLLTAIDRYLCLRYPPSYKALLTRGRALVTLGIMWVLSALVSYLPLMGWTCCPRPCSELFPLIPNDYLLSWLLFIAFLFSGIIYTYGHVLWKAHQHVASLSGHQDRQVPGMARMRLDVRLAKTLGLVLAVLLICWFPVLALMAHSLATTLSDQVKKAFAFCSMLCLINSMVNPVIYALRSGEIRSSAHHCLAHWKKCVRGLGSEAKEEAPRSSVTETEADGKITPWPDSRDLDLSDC"}
{"smiles": "O=C(c1cc2c(cc1F)OC(c1ccc(F)cc1)(c1ccc(Cl)cc1Cl)O2)N1CCOCC1", "note": "(stereo unspecified) [CAS_24828562]", "values": [{"measurement": "Ki", "result": 3, "unit": "nM"}]}
